ChEMBL document CHEMBL3637782, “GSK Tres Cantos Follow-up TB Screening Data” (2016)
Values after ≈ are worked out from the molar mass of the structure shown.

Assays:
[1] = test system: Mycobacterium tuberculosis H37Rv; test: GSK_TB: Inhibition of the intracellular growth of Mycobacterium tuberculosis (pXC50); format: functional, ATCC25618
[2] = GSK_TB: Kinetic solubility of the compound in phosphate buffered saline at pH 7.4 after 1 hr by CLND method; format: physicochemical
[3] = GSK_TB: Lipophilicity, log D of the compound at pH 7.4 by ChromlogD analysis; format: physicochemical; conditions: buffer
[4] = test system: HepG2; test: GSK_TB: The cytotoxicity against HepG2 cells expressed as IC50; format: functional, cell-based; conditions: Homo sapiens
[5] = test system: Mycobacterium tuberculosis H37Rv; test: GSK_TB: Minimum inhibitory concentration against H37Rv stain of Mycobacterium tuberculosis using MABA method; format: functional; conditions: ATCC25618
[6] = GSK_TB: AVG_CHROM_LOGP; format: physicochemical

For `O=C(NCc1ccco1)N1CCN(Cc2ccc3c(c2)CCO3)CC1`, the pXC50 [1] was 5.8, the solubility kinetic at 1 h [2] was 88 µg/mL (≈ 258 µM) and the Lipophilicity [3] was 3.47. It also gave an IC50 [4] of over 100 µM, an MIC [5] of 2 µM (≈ 0.683 µg/mL) and a Lipophilicity [6] of 3.5941.

Work on `Cc1c(C(=O)NCCOc2ccccc2)[nH]c2c1C(=O)CCC2` yielded a pXC50 [1] of 5, a solubility kinetic at 1 h [2] of 46 µg/mL (≈ 147 µM) and a Lipophilicity [3] of 3.62. It also gave an IC50 [4] of 100 µM, an MIC [5] of 10 µM (≈ 3.12 µg/mL) and a Lipophilicity [6] of 3.8226.

`Clc1nnc(N2CCCC2)c2ccccc12` showed a pXC50 [1] of 5.8, a solubility kinetic at 1 h [2] of at least 100 µg/mL and a Lipophilicity [3] of 4.41. The IC50 [4] was over 100 µM, the MIC [5] was 4 µM (≈ 0.935 µg/mL) and the Lipophilicity [6] was 4.4101.

Work on `CC(C)Oc1ccc(-c2nnc(-c3ccc4c(c3)CCNCC4)s2)cc1Cl` yielded a pXC50 [1] of 5.5, a solubility kinetic at 1 h [2] of 5 µg/mL (≈ 12.5 µM) and a Lipophilicity [3] of 4.92. The IC50 [4] was 16 µM, the MIC [5] was 10 µM (≈ 4 µg/mL) and the Lipophilicity [6] was 7.5923.

Compound `N#Cc1cccc(-c2ccc(NC[C@H]3CC[C@]4(CC3)CN(c3cccnn3)C(=O)O4)nc2)c1` has a pXC50 [1] of 5.6, a solubility kinetic at 1 h [2] of 11 µg/mL (≈ 25 µM) and a Lipophilicity [3] of 4.96. The IC50 [4] was 40 µM, the MIC [5] was 10 µM (≈ 4.41 µg/mL) and the Lipophilicity [6] was 4.9649.

For `CC(C)c1noc(N2CCC([C@H](C)Oc3cnc(-c4ccc(S(C)(=O)=O)c(F)c4)cn3)CC2)n1`, the pXC50 [1] was 5.2, the solubility kinetic at 1 h [2] was 13 µg/mL (≈ 26.6 µM) and the Lipophilicity [3] was 6.69. The IC50 [4] was 25 µM and the MIC [5] was 6 µM (≈ 2.94 µg/mL).

In the case of `Fc1cccc(Oc2cc(C3CCCNC3)nc(-c3ccncc3)n2)c1` (configuration not stated), the solubility kinetic at 1 h [2] is reported as 64 µg/mL (≈ 183 µM), the Lipophilicity [3] is reported as 2.9 and the IC50 [4] is reported as 50 µM. For the same compound, the MIC [5] was 10 µM (≈ 3.5 µg/mL) and the Lipophilicity [6] was 5.1281.

Work on `Fc1ccc(Cc2nnc(-c3ccnc(Nc4ccc(OCCN5CCOCC5)cc4)n3)[nH]2)cc1` yielded a pXC50 [1] of 5.8, a solubility kinetic at 1 h [2] of 69 µg/mL (≈ 145 µM) and a Lipophilicity [3] of 3.84. It also gave an IC50 [4] of 40 µM, an MIC [5] of 5.6 µM (≈ 2.66 µg/mL) and a Lipophilicity [6] of 3.8389.

Compound `COC(=O)c1ccc(Oc2ccc(-c3csc(C)n3)cc2F)nn1` has a pXC50 [1] of under 4.3, a solubility kinetic at 1 h [2] of 17 µg/mL (≈ 49.2 µM) and a Lipophilicity [3] of 4.83. It also gave an IC50 [4] of over 100 µM, an MIC [5] of 5.6 µM (≈ 1.93 µg/mL) and a Lipophilicity [6] of 4.8996.

`COc1ccc(Nc2nc(N[C@@H]3CCNC3)nc3cc[nH]c(=O)c23)cc1NC(=O)c1ccccc1` gave a pXC50 [1] of 5.5, a solubility kinetic at 1 h [2] of 106 µg/mL (≈ 226 µM) and a Lipophilicity [3] of 2.41. It also gave an IC50 [4] of 25 µM, an MIC [5] of 5 µM (≈ 2.36 µg/mL) and a Lipophilicity [6] of 3.1698.

With `CC1CC1c1ccc(CN2CCc3nc(Nc4ccccc4)sc3CC2)o1` (configuration not stated) the solubility kinetic at 1 h [2] was 54 µg/mL (≈ 142 µM), the Lipophilicity [3] was 7.64 and the IC50 [4] was 40 µM. The MIC [5] was 5.6 µM (≈ 2.13 µg/mL) and the Lipophilicity [6] was 8.1798.

`CNc1snc(C)c1C(=O)NCCOc1ccc(OC)cc1` gave a pXC50 [1] of 5.7, a solubility kinetic at 1 h [2] of 121 µg/mL (≈ 376 µM) and a Lipophilicity [3] of 4.24. It also gave an IC50 [4] of over 100 µM, an MIC [5] of 2.5 µM (≈ 0.804 µg/mL) and a Lipophilicity [6] of 4.2469.

With `COc1ccc(CN2CCN(C(=O)/C=C/c3csc(C)n3)CC2)cc1` the pXC50 [1] was 5.7, the solubility kinetic at 1 h [2] was at least 116 µg/mL and the Lipophilicity [3] was 4.13. For the same compound, the IC50 [4] was 80 µM, the MIC [5] was 10 µM (≈ 3.57 µg/mL) and the Lipophilicity [6] was 4.1653.

In the case of `Cn1cc(CCNC(=O)Nc2ccc(N3CCCCC3)nc2)cn1`, the pXC50 [1] is reported as 4.7, the Lipophilicity [3] is reported as 2.97 and the IC50 [4] is reported as over 100 µM. It also gave an MIC [5] of 5 µM (≈ 1.64 µg/mL) and a Lipophilicity [6] of 2.974.

`CCCC/C=C/c1cc2ccncc2cc1OC1CCNCC1` showed a pXC50 [1] of 5.9, a solubility kinetic at 1 h [2] of 36 µg/mL (≈ 116 µM) and a Lipophilicity [3] of 3.61. It also gave an IC50 [4] of 16 µM, an MIC [5] of 1.6 µM (≈ 0.497 µg/mL) and a Lipophilicity [6] of 7.3475.

With `Cc1ccc2c(c1)c(=O)cc(C(F)(F)F)n2CCNC(=O)c1ccccn1` the pXC50 [1] was 5.6, the solubility kinetic at 1 h [2] was 6 µg/mL (≈ 16 µM) and the Lipophilicity [3] was 5.84. For the same compound, the IC50 [4] was over 100 µM, the MIC [5] was 10 µM (≈ 3.75 µg/mL) and the Lipophilicity [6] was 6.1236.

Work on `O=C(O)CCc1nc2ccccc2oc1=O` yielded a pXC50 [1] of under 4.3, a solubility kinetic at 1 h [2] of 63 µg/mL (≈ 287 µM) and a Lipophilicity [3] of 0.04. For the same compound, the IC50 [4] was over 100 µM, the MIC [5] was 8 µM (≈ 1.75 µg/mL) and the Lipophilicity [6] was 2.3212.

Work on `Cc1nc(Nc2cnn(Cc3ccccc3F)c2)c2nn(C)c(C)c2n1` yielded a pXC50 [1] of 6, a solubility kinetic at 1 h [2] of 23 µg/mL (≈ 65.5 µM) and a Lipophilicity [3] of 3.41. For the same compound, the IC50 [4] was over 100 µM, the MIC [5] was 4 µM (≈ 1.41 µg/mL) and the Lipophilicity [6] was 3.4146.

`O=[N+]([O-])c1cnc(-c2nc3ccccc3[nH]2)s1` gave a pXC50 [1] of under 4.3, a solubility kinetic at 1 h [2] of 16 µg/mL (≈ 65 µM) and a Lipophilicity [3] of 3.17. It also gave an IC50 [4] of 10 µM, an MIC [5] of 4.4 µM (≈ 1.08 µg/mL) and a Lipophilicity [6] of 4.459.

With `NS(=O)(=O)c1ccc(Nc2cnc3ccccc3n2)cc1` the pXC50 [1] was under 4.3, the solubility kinetic at 1 h [2] was 112 µg/mL (≈ 373 µM) and the Lipophilicity [3] was 1.07. For the same compound, the IC50 [4] was over 100 µM, the MIC [5] was 2 µM (≈ 0.601 µg/mL) and the Lipophilicity [6] was 2.5171.

For `O=C(NCCO)c1c(O)c2ncc(Cc3ccc(F)cc3C(F)(F)F)cc2[nH]c1=O`, the pXC50 [1] was 5.7, the solubility kinetic at 1 h [2] was 10 µg/mL (≈ 23.5 µM) and the Lipophilicity [3] was 3.74. It also gave an IC50 [4] of over 100 µM, an MIC [5] of 7.5 µM (≈ 3.19 µg/mL) and a Lipophilicity [6] of 3.9858.

`CCOc1cc2ccccc2cc1C(=O)NC` showed a pXC50 [1] of 5.3, a solubility kinetic at 1 h [2] of 64 µg/mL (≈ 279 µM) and a Lipophilicity [3] of 4.43. It also gave an IC50 [4] of over 100 µM, an MIC [5] of 10 µM (≈ 2.29 µg/mL) and a Lipophilicity [6] of 4.6549.

`CCOCn1ccc(NS(=O)(=O)c2ccc(N)cc2)nc1=O` gave a pXC50 [1] of 4.9, a solubility kinetic at 1 h [2] of 52 µg/mL (≈ 160 µM) and a Lipophilicity [3] of 0.66. For the same compound, the IC50 [4] was over 100 µM, the MIC [5] was 4.7 µM (≈ 1.52 µg/mL) and the Lipophilicity [6] was 0.7057.

`O=S(=O)(NCc1ccccc1)c1ccc(-c2cc3ccncc3cc2OC2CCNCC2)s1` showed a pXC50 [1] of 5.4, a solubility kinetic at 1 h [2] of 33 µg/mL (≈ 68.8 µM) and a Lipophilicity [3] of 3.2. It also gave an IC50 [4] of 10 µM, an MIC [5] of 2.5 µM (≈ 1.2 µg/mL) and a Lipophilicity [6] of 4.4101.

`O=C(NCc1ccco1)N1CCN(Cc2cccs2)CC1` gave a pXC50 [1] of 5.4, a solubility kinetic at 1 h [2] of at least 105 µg/mL and a Lipophilicity [3] of 3.53. The IC50 [4] was over 100 µM, the MIC [5] was 2.5 µM (≈ 0.764 µg/mL) and the Lipophilicity [6] was 3.5288.

Work on `O=C(NCc1ccoc1)N1CCN(Cc2ccc3c(c2)OCO3)CC1` yielded a pXC50 [1] of 6.3, a solubility kinetic at 1 h [2] of 86 µg/mL (≈ 250 µM) and a Lipophilicity [3] of 3.48. It also gave an IC50 [4] of over 100 µM, an MIC [5] of 1.25 µM (≈ 0.429 µg/mL) and a Lipophilicity [6] of 3.5288.

With `COc1ccc(Nc2ncccc2N)cc1` the pXC50 [1] was 6.2, the solubility kinetic at 1 h [2] was 18 µg/mL (≈ 83.6 µM) and the Lipophilicity [3] was 1.45. It also gave an IC50 [4] of 63 µM, an MIC [5] of 5.6 µM (≈ 1.21 µg/mL) and a Lipophilicity [6] of 1.44.

`NC(=O)c1cc2ccc(CC(=O)c3cccs3)cc2s1` showed a pXC50 [1] of 6, a solubility kinetic at 1 h [2] of 8 µg/mL (≈ 26.5 µM) and a Lipophilicity [3] of 3.62. For the same compound, the IC50 [4] was over 100 µM, the MIC [5] was 3.8 µM (≈ 1.15 µg/mL) and the Lipophilicity [6] was 3.7247.

For `CCCCNCC1COc2ccc(OC)cc2C1=O` (configuration not stated), the pXC50 [1] was 5.3, the solubility kinetic at 1 h [2] was 118 µg/mL (≈ 448 µM) and the Lipophilicity [3] was 2.99. It also gave an IC50 [4] of 12 µM, an MIC [5] of 5 µM (≈ 1.32 µg/mL) and a Lipophilicity [6] of 5.6014.

In the case of `O=C(Nc1nc2c(s1)CCCc1cccnc1-2)c1ccccc1C(F)(F)F`, the pXC50 [1] is reported as 6.2, the solubility kinetic at 1 h [2] is reported as 9 µg/mL (≈ 23.1 µM) and the Lipophilicity [3] is reported as 5.26. The IC50 [4] was 79 µM, the MIC [5] was 3.7 µM (≈ 1.44 µg/mL) and the Lipophilicity [6] was 5.2587.

With `FC(F)(F)Oc1ccc(-c2cc3ccncc3cc2OC2CCNCC2)cc1` the pXC50 [1] was 5.5, the solubility kinetic at 1 h [2] was 82 µg/mL (≈ 211 µM) and the Lipophilicity [3] was 3.47. It also gave an IC50 [4] of 16 µM, an MIC [5] of 5 µM (≈ 1.94 µg/mL) and a Lipophilicity [6] of 6.8742.

`NCC(c1cccs1)S(=O)(=O)c1ccccc1` (configuration not stated) gave a solubility kinetic at 1 h [2] of at least 134 µg/mL, a Lipophilicity [3] of 2.5 and an IC50 [4] of 32 µM. For the same compound, the MIC [5] was 2 µM (≈ 0.535 µg/mL) and the Lipophilicity [6] was 2.5334.
